Measured values reported in patent US9975853B2, “Tetrahydroisoquinolinone derivatives and their use in the inhibition of the HSP70 protein” (Julius-Maximilians-Universitaet Wuerzburg, priority 2014, dated 2018).
Read-outs that look alike come from different tables or passages of the source.

What was measured:
[1] = test system: INA-6; experiment: Cell viability assay (annexin V-FITC/propidium iodide, flow cytometry) in INA-6 multiple myeloma cells; format: cell-based, human; settings: Homo sapiens, INA-6, 72 h, read-out: INA-6 EC50(±sdv)
Experimental: The effect of pharmacological Hsp70 inhibition on cell viability was analyzed after 72 hours of treatment in both non-malignant (mononuclear cells from the peripheral blood) and malignant lymphocytes (multiple myeloma cells). The mononuclear cells were separated from the peripheral blood of healthy donors by Ficoll-Hypaque density gradient centrifugation. The human cell line INA-6 represents a well-established model for multiple myeloma. The percentage of viable and apoptotic cell fractions was assessed using an annexin V-FITC/propidium iodide (PI) staining kit (Bender MedSystems, Vienna, Austria) according to manufacturer's instructions. In brief, cells were washed in PBS, incubated for 10 min in 100 ml binding buffer (10 mM HEPES/NaOH, pH 7.4, 140 mM NaCl, 2.5 mM CaCl2) containing 2.5 ml annexin V-FITC mix and 1 mg/ml propidium iodide (PI), subsequently diluted with 100 ml binding buffer and analyzed by flow cytometry (FACSCalibur/CELLQuest; Becton Dickinson, Heidelberg, Germany). Whereas viable cells are negative for both, annexin V-FITC and PI, early apoptotic cells show a positive annexin V-FITC staining, and cells in a late apoptotic stage which lose their membrane integrity additionally incorporate DNA-binding PI. To establish kill curves, concentrations of the tested compounds were titrated, and the measured viable cell fractions were further analyzed using the Prism Calculation Software (GraphPad Software Inc., La Jolla, USA).
In FIG. 2A Western blot analyses of caspases 9 and 3, and the caspase substrate PARP (upper panel), and viability analyses (lower panel) of INA-6 MM cells upon treatment with trans-7b for 24 hours are shown. INA-6 cells were either incubated with DMSO (as a solvent control) or with 0.6 μM of trans-7b, and additionally incubated either with DMSO or the pan-caspase inhibitor Z-VAD-FMK prior to analyses by Western or viability assessment (without Z-VAD-FMK co-treatment) by Annexin V/propidum iodide double staining. For Western analyses INA-6 cell pellets were dissolved in lysis buffer (20 mM HEPES (pH 7.9), 350 mM NaCl, 1 mM MgCl2, 0.5 mM EDTA, 0.1 mM EGTA, 1% NP40, 0.5 mM dithiothreiol (DTT), 1 mM Na3VO4, 0.1 mM PMSF and 1 μg/ml aprotinin). Lysates were cleared by centrifugation, measured by quantitative protein assay (Bio-Rad, München, Germany) and subjected to SDS gel electrophoresis. Proteins were transferred onto nitrocellulose membranes (Schleicher & Schuell, Dassel, Germany), incubated with antibodies specific for caspase 9, caspase 3 or PARP (Cell Signaling Technology, Frankfurt a.Main, Germany) according to standard procedures and visualized with secondary anti-rabbit horseradish peroxidase (HRP)-conjugated antibodies using an enhanced chemoluminescence detection system (ECL, Amersham, Freiburg, Germany). […] Annexin V/propidium iodide (PI) staining was performed using a fluorescein isothiocyanate (FITC) conjugated recombinant human annexin/propidium iodide kit (BenderMedSystems, Vienna, Austria) according to the manufacturer's instructions. INA-6 cells were washed in PBS, incubated for 15 minutes in 100 ml binding buffer (10 mM HEPES/NaOH, pH 7.4, 140 mM NaCl, 2.5 mM CaCl2) containing 2.5 mL annexin V-FITC mix and 1 mg/ml PI and analyzed by flow cytometry (FACSCalibur/CELLQuest; Becton Dickinson, Heidelberg, Germany). Whereas early apoptosis is characterized by positive annexin V-FITC staining reaction, cells in a late apoptotic stage lose their membrane integrity and additionally incorporate PI. Thus, the fraction of viable cells remains negative for both annexin V-FITC and PI. […] Based on the above described experiments also viability analyses of INA-6 in comparison with non-malignant PBMCs were performed choosing a longer incubation time (72 hours) as shown in FIG. 2B or C. Raw data of three independent experiments have been calculated to establish means, standard deviation and dose-effect curves of trans-7b.

[2] = INA-6 multiple myeloma cells, 72 hours of treatment, viable cell fraction, mean of at least three determinations

SMILES | EC50 [1, 2] | other results
COc1ccc(N2C(=O)c3ccccc3C(C(=O)O)C2c2ccccc2)cc1 (stereo not drawn) [cis-5c, cis-2-(4-Methoxyphenyl)-1-oxo-3-phenyl-1,2,3,4-tetrahydroisoquinoline-4-carboxylic acid] | > 100 µM | melting point: 208 to 209 °C
COc1ccc(C2C(C(=O)Nc3cccc(C)n3)c3ccccc3C(=O)N2c2ccc(Oc3ccccc3)cc2)cc1 (stereo not drawn) [trans-7n, trans-3-(4-Methoxyphenyl)-N-(6-methylpyridin-2-yl)-1-oxo-2-(4-phenoxyphenyl)-1,2,3,4-tetrahydroisoquinoline-4-carboxamide] | > 100 µM | –
COc1ccc(C2C(C(=O)Nc3cccc(C)c3)c3ccccc3C(=O)N2c2ccc(OC)cc2)cc1 (stereo not drawn) [trans-7e, trans-2,3-Bis(4-methoxyphenyl)-1-oxo-N-(m-tolyl)-1,2,3,4-tetrahydroisoquinoline-4-carboxamide] | – | EC50 [1]: 0.88 µM
Cc1cccc(NC(=O)C2c3ccccc3C(=O)N(c3ccc(Cl)cc3)C2c2ccc(Cl)cc2)n1 (stereo not drawn) [trans-7l, trans-2,3-Bis(4-chlorophenyl)-N-(6-methylpyridin-2-yl)-1-oxo-1,2,3,4-tetrahydroisoquinoline-4-carboxamide] | 2.9 µM | –
Cc1cccc(NC(=O)C2c3ccccc3C(=O)N(c3ccc(F)cc3)C2c2ccc(F)cc2)n1 (stereo not drawn) [trans-7k, trans-2,3-Bis(4-fluorophenyl)-N-(6-methylpyridin-2-yl)-1-oxo-1,2,3,4-tetrahydroisoquinoline-4-carboxamide] | 6.4 µM | –
COc1ccc(N2C(=O)c3ccccc3[C@@H](C(=O)O)[C@@H]2c2ccccc2)cc1 (relative stereo) [trans-6c, Sodium trans-2-(4-methoxyphenyl)-1-oxo-3-phenyl-1,2,3,4-tetrahydroisoquinoline-4-carboxylate] | – | EC50 [1]: 64 µM
COc1ccc(C2C(C(=O)Nc3cc(C)cc(C)n3)c3ccccc3C(=O)N2c2ccccc2)cc1 (stereo not drawn) [trans-7r, trans-N-(4,6-Dimethylpyridin-2-yl)-3-(4-methoxyphenyl)-1-oxo-2-phenyl-1,2,3,4-tetrahydroisoquinoline-4-carboxamide] | 0.34 µM | –
COc1ccc(C2C(C(=O)Nc3cccc(C)n3)c3ccccc3C(=O)N2c2ccc(OC)cc2)cc1 (stereo not drawn) [trans-7d, trans-2,3-Bis(4-methoxyphenyl)-N-(6-methylpyridin-2-yl)-1-oxo-1,2,3,4-tetrahydroisoquinoline-4-carboxamide] | 0.68 µM | –
COc1ccc(C2C(C(=O)Nc3ccccn3)c3ccccc3C(=O)N2c2ccc(OC)cc2)cc1 (stereo not drawn) [trans-7f, trans-2,3-Bis(4-methoxyphenyl)-1-oxo-N-(pyridin-2-yl)-1,2,3,4-tetrahydroisoquinoline-4-carboxamide] | 0.53 µM | –
CNC(=O)C1c2ccccc2C(=O)N(c2ccc(OC)cc2)C1c1ccc(OC)cc1 (stereo not drawn) [trans-7g, trans-2,3-Bis(4-methoxyphenyl)-N-methyl-1-oxo-1,2,3,4-tetrahydroisoquinoline-4-carboxamide] | 7.1 µM | –
Cc1cc(C)cc(C2C(C(=O)Nc3cccc(C)n3)c3ccccc3C(=O)N2c2cc(C)cc(C)c2)c1 (stereo not drawn) [trans-7m, trans-2,3-Bis(3,5-dimethylphenyl)-N-(6-methylpyridin-2-yl)-1-oxo-1,2,3,4-tetrahydroisoquinoline-4-carboxamide] | 43 µM | –
COc1ccc([C@H]2[C@H](C(=O)O)c3ccccc3C(=O)N2c2ccc(OC)cc2)cc1 (relative stereo) [cis-6d, Sodium trans-2,3-bis(4-methoxyphenyl)-1-oxo-1,2,3,4-tetrahydroisoquinoline-4-carboxylate] | > 100 µM | –
COc1ccc(C2C(C(=O)Nc3ncccn3)c3ccccc3C(=O)N2c2ccccc2)cc1 (stereo not drawn) [trans-7p, trans-3-(4-Methoxyphenyl)-1-oxo-2-phenyl-N-(pyrimidin-2-yl)-1,2,3,4-tetrahydroisoquinoline-4-carboxamide] | 0.2 µM | –
Cc1cccc(NC(=O)C2c3ccccc3C(=O)N(c3ccccc3)C2c2ccccc2)n1 (stereo not drawn) [trans-7a, trans-N-(6-Methylpyridin-2-yl)-1-oxo-2,3-diphenyl-1,2,3,4-tetrahydroisoquinoline-4-carboxamide] | 2.3 µM | –
COc1ccc(C2C(C(=O)Nc3cccc4c3CCCC4)c3ccccc3C(=O)N2c2ccc(OC)cc2)cc1 (stereo not drawn) [trans-7i, trans-2,3-Bis(4-methoxyphenyl)-1-oxo-N-(5,6,7,8-tetrahydronaphthalen-1-yl)-1,2,3,4-tetrahydroisoquinoline-4-carboxamide] | > 100 µM | –
COc1ccc([C@H]2[C@H](C(=O)O)c3ccccc3C(=O)N2c2ccccc2)cc1 (relative stereo) [trans-6b, Sodium trans-3-(4-methoxyphenyl)-1-oxo-2-phenyl-1,2,3,4-tetrahydroisoquinoline-4-carboxylate] | – | EC50 [1]: 2 µM
COc1ccc(N2C(=O)c3ccccc3[C@H](C(=O)O)[C@@H]2c2ccccc2)cc1 (relative stereo) [cis-6c, Sodium cis-2-(4-methoxyphenyl)-1-oxo-3-phenyl-1,2,3,4-tetrahydroisoquinoline-4-carboxylate] | – | EC50 [1]: > 100 µM
O=C(O)[C@@H]1c2ccccc2C(=O)N(c2ccc(F)cc2)[C@H]1c1ccc(F)cc1 (relative stereo) [trans-5e, trans-2,3-Bis(4-fluorophenyl)-1-oxo-1,2,3,4-tetrahydroisoquinoline-4-carboxylic acid] | – | melting point: 116 to 118 °C
COc1ccc(C2C(C(=O)Nc3cccnc3)c3ccccc3C(=O)N2c2ccccc2)cc1 (stereo not drawn) [trans-7q, trans-3-(4-Methoxyphenyl)-1-oxo-2-phenyl-N-(pyridin-3-yl)-1,2,3,4-tetrahydroisoquinoline-4-carboxamide] | 0.57 µM | –
COc1ccc(C2C(C(=O)N(C)C)c3ccccc3C(=O)N2c2ccc(OC)cc2)cc1 (stereo not drawn) [trans-7h, trans-2,3-Bis(4-methoxyphenyl)-N,N-dimethyl-1-oxo-1,2,3,4-tetrahydroisoquinoline-4-carboxamide] | > 100 µM | –
COc1ccc(C2C(C(=O)Nc3cc(C)cc(C)c3)c3ccccc3C(=O)N2c2ccc(OC)cc2)cc1 (stereo not drawn) [trans-7j, trans-N-(3,5-Dimethylphenyl)-2,3-bis(4-methoxyphenyl)-1-oxo-1,2,3,4-tetrahydroisoquinoline-4-carboxamide] | 0.95 µM | –
Cc1cccc(NC(=O)C2c3ccccc3C(=O)N(c3ccc(O)cc3)C2c2ccc(O)cc2)n1 (stereo not drawn) [trans-7o, trans-2,3-Bis(4-hydroxyphenyl)-N-(6-methylpyridin-2-yl)-1-oxo-1,2,3,4-tetrahydroisoquinoline-4-carboxamide] | 30 µM | –
O=C(O)[C@@H]1c2ccccc2C(=O)N(c2ccc(Cl)cc2)[C@H]1c1ccc(Cl)cc1 (relative stereo) [trans-5f, trans-2,3-Bis(4-chlorophenyl)-1-oxo-1,2,3,4-tetrahydroisoquinoline-4-carboxylic acid] | – | melting point: 116 to 127 °C
COc1ccc([C@H]2[C@@H](C(=O)O)c3ccccc3C(=O)N2c2ccc(OC)cc2)cc1 (relative stereo) [trans-6d, Sodium cis-2,3-bis(4-methoxyphenyl)-1-oxo-1,2,3,4-tetrahydroisoquinoline-4-carboxylate] | 7.9 µM | –
COc1ccc([C@H]2[C@H](C(=O)O)c3ccccc3C(=O)N2c2ccc(Oc3ccccc3)cc2)cc1 (relative stereo) [trans-5h, trans-3-(4-Methoxyphenyl)-1-oxo-2-(4-phenoxyphenyl)-1,2,3,4-tetrahydroisoquinoline-4-carboxylic acid] | – | melting point: 109 to 115 °C
